In US5631226A, “Treatment to reduce edema” (The Regents of the University of California, priority 1995, dated 1997):
No end group written: not given here.

What was measured:
ACTH secretion = details: prior art report; cited from earlier work
blood pressure = details: prior art report; cited from earlier work
[1] = test system: brain edema after freeze injury to cerebral cortex; test: Freeze injury of cerebral cortex, water and sodium content as index of brain edema; format: in vivo, rat; details: CRF 30 μg/kg s.c. 2x, tissues 3 hr after injury, ±S.E.M., N=5
Experimental: In a second set of experiments, the brain surface, namely the cerebral cortex, was injured by freezing and the water and sodium content were measured in the cerebral cortex and in the basal ganglia, a part of the brain away from the freeze zone. The water and sodium content of the brain tissue served as an index of brain edema. After freeze injury, the water and sodium content of the cerebral cortex were evaluated relative to non-frozen tissues. CRF administered in two separate doses of 30 μg/kg subcutaneously, one dose 15 minutes before the injury and the second dose 90 minutes after the first dose, inhibited the two indices of brain edema.
Male SpragueDawley rats, 300-325 g, anesthetized with
ketamineacepromazine, were injected saline or CRF (30 μg/kg s.c. 2x)
and injury to cerebral cortex was produced by applying a cold probe to th
skull for 1 min. Brain tissues were obtained 3 hr later and analyzed for
water and sodium content.

[2] = test system: vascular leakage produced by PAF-acether; test: Vascular leakage produced by PAF-acether injected subcutaneously into the abdomen; format: in vivo, rat; details: CRF 30 μg/kg s.c. 30 minutes before PAF-acether
Experimental: CRF: 30 μg/kg s.c. injected 30 minutes before subcutaneous injection o
PAFacether (1 μg/0.1 ml/rat) into the abdomen; muscle removed 0.5 hour

[3] = test system: edema-producing properties of inflammatory mediators in rat pawskin; details: mediators injected into the rat pawskin; previously shown; cited from earlier work
[4] = test system: vascular leakage after musculature injury (celiotomy); test: Vascular leakage after celiotomy (4 cm midline incision through abdominal muscle wall); format: in vivo, rat; details: for Lesions Size: tissues 0.5 hour after surgery
Experimental: Experiments were conducted on male Sprague-Dawley rats 243±15 gm (S. D., Simonsen Labs., Gilroy, Calif.) anesthetized with sodium pentobarbital, 60 mg/kg i.p. Monastral blue, 60 mg/kg i.v., was injected 0.2 ml/100 g, 3 minutes before a 4 cm midline incision through the abdominal muscle wall (celiotomy). Saline or CRF was administered to randomized pairs with N=8 rats per group. The size of the lesion, measured as area in mm^2, and its light intensity, were quantified using the JAVA image-analysis software program. The light intensity, given in arbitrary units, was internally calibrated using Monastral blue solutions (1-30 mg/ml) placed on white filter paper. Values are mean±S.E.M. FIG. 2 illustrates the respective amount of vascular permeability for one pair of rats (control and treated). Tables III and IV set out data from these experiments.
CRF: inhected at various doses subcutaneously 30 minutes before a 4 cm
middle incision, tissues taken 0.5 hour after surgery.
CRF: 30 μg/kg s.c. injected 2 hour before a 4 cm midline incision,
tissues taken 0.5 hour after surgery

[5] = test system: vascular permeability produced by cold injury in brain; test: Cold (freeze) injury to brain, vascular leakage by Monastral blue staining; format: in vivo, rat
Description: An in vivo model of injury to study brain edema has been developed as a reproducible edema model, which has the features of immediate cortical damage followed by the subsequent development of brain edema. This model is described by Chan et al., Brain Research, 277, pp. 329-337 (1983). The model uses rats which are anesthetized. A 2.5 cm incision is made over the sagittal suture and the bone of the right hemisphere exposed. A 60 mm^2 plate attached to a brass cup filled with dry ice-acetone mixture, with a temperature of -50° C., is applied to the rat skull for one minute. The animals are sacrificed at various intervals after the onset of cold-injury. A dye is administered intravenously before the freezing. Cortical slices are then obtained of the brain.
Sixteen male rats were randomly divided into eight pairs and one rat in each pair received either saline or CRF (subcutaneously twice at 30 μg/kg, 30 min and 10 min before cold injury). The animals were anesthetized with sodium pentobarbital, 60 mg/kg intraperitoneally, and injected with Monastral blue, 60 mg/kg intravenously. A cold probe was applied onto the skull for four minutes and the brains taken out one hour after cold injury. The staining of brain tissues with Monastral blue, a colloidal pigment that gets trapped between the albuminal surface of the endothelial cell and the basement membrane, was proportional to the degree of vascular leakage. The results from the first pair are shown as FIG. 1.
The size of the lesion, measured as area in mm^2, and the degree of staining intensity, were quantified using an image-analysis software program called JAVA (Jandel Corporation, San Rafael, Calif.). The stain intensity, given in arbitrary units, was internally calibrated using Monastral blue solutions (1-30 mg/ml) placed on white filter paper. Values are mean ±S.E.M.

Pseudomonas = test: Neutropenic rat model of sepsis (Pseudomonas infection), survival; format: in vivo; details: CRF 100 μg/kg i.v. twice a day for four days after onset of fever; day 11; 9/15; controls 100% mortality at 8 days
Description: The neutropenic rat model of sepsis, designed to mimic the systemic inflammatory response syndrome in humans, is described by Collins et al. from The Journal of Infectious Diseases, 159:6 (June 1989) and The Journal of Clinical Investigation, 88:885 (September 1991). […] The animals die from overwhelming infection within 7 to 9 days of infection and examination of the tissues with histological and pathological techniques reveal the characteristic organic manifestations of the systemic inflammatory response syndrome, namely, organ edema and tissue necrosis.
In a typical experiment, 10 rats serving as controls received saline and 15 rats received CRF at a dose of 100 μg/kg intravenously, given twice a day for four days after the onset of fever. At the end of 8 days, all of the animals in the control group were dead (100% mortality). By contrast, 60% (9/15) of the CRF group were still alive at day 11 when the experiment was concluded. The difference between the saline and CRF treated groups were statistically significant (P<0.002).

[6] = CRF 15 μg/kg s.c. 30 minutes before incision
[7] = CRF 30 μg/kg s.c. 30 minutes before incision
[8] = CRF 60 μg/kg s.c. 30 minutes before incision

Molecule | effect on ACTH secretion (ACTH secretion) | effect on blood pressure (blood pressure) | SODIUM mEq/kg dry ([1]; basal ganglia (non-injured)) [mEq/kg dry] | WATER CONTENT % ([1]; basal ganglia (non-injured)) [%] | SODIUM mEq/kg dry ([1]; cerebral cortex (injured)) [mEq/kg dry] | WATER CONTENT % ([1]; cerebral cortex (injured)) [%] | muscle lesion size relative to saline-treated control group [2] [%] | effect on edema-producing properties of inflammatory mediators [3] | lesion size relative to saline-treated group [4, 6] [%] | Lesions Size [4, 6] | lesion size relative to saline-treated group [4, 7] [%] | Lesions Size [4, 7] | lesion size relative to saline-treated group ([4]; CRF 30 μg/kg s.c. 2 hour before incision) [%] | lesion size relative to saline-treated group [4, 8] [%] | Lesions Size [4, 8] | lesion size of CRF-treated group relative to saline-treated group ([5]; CRF 30 μg/kg s.c. twice before cold injury) [%] | Intensity (Monastral blue stain intensity) ([5]; CRF 30 μg/kg s.c. twice, 30 min and 10 min before cold injury, brains taken 1 hour after injury, mean ± S.E.M.) [arbitrary units] | blinded observer correctly assigns brains to saline or CRF group (more vs less damaged) ([5]; eight pairs of rats) | animals still alive (survival) (Pseudomonas) [%]
CC[C@H](C)[C@H](NC(=O)[C@@H](NC(=O)[C@H](CC(=O)O)NC(=O)[C@H](CC(C)C)NC(=O)[C@H](CC(C)C)NC(=O)[C@H](CC(C)C)NC(=O)[C@H](CCCNC(=N)N)NC(=O)[C@H](CC(N)=O)NC(=O)[C@H](CC(N)=O)NC(=O)[C@H](C)NC(=O)[C@H](C)NC(=O)[C@H](CCC(N)=O)NC(=O)[C@H](CCC(N)=O)NC(=O)[C@H](CCCCN)NC(=O)[C@H](CCC(=O)O)NC(=O)[C@H](CCCCN)NC(=O)[C@H](CCC(=O)O)NC(=O)[C@H](CCC(N)=O)NC(=O)[C@H](CCCCN)NC(=O)[C@H](CCC(=O)O)NC(=O)[C@@H](NC(=O)[C@H](CCC(=O)O)NC(=O)[C@@H](NC(=O)[C@H](CCSC)NC(=O)[C@H](CCCCN)NC(=O)[C@H](CCCNC(=N)N)NC(=O)[C@H](CC(C)C)NC(=O)[C@H](CC(C)C)NC(=O)[C@H](CCC(=O)O)NC(=O)[C@H](CC(C)C)NC(=O)[C@H](CO)NC(=O)[C@H](CC(C)C)NC(=O)[C@H](CC(=O)O)NC(=O)[C@@H](NC(=O)[C@H](CO)NC(=O)[C@@H](NC(=O)[C@@H]1CCCN1C(=O)[C@@H]1CCCN1C(=O)CNC(=O)[C@@H]1CCC(=O)N1)[C@@H](C)CC)[C@@H](C)CC)[C@@H](C)CC)[C@@H](C)CC)[C@@H](C)O)C(N)=O [Sauvagine] | stimulating the secretion of ACTH and β-endorphin | lowering blood pressure |  |  |  |  |  |  |  |  |  |  |  |  |  |  |  |  | 
CRF: 41 amino acid neuropeptide present in brain and peripheral nerve endings; stimulates ACTH release from pituitary cells (SEEPPISLDLTFHLLREVLEMARAEQLAQQAHSNRKLMEII; not fully specified; ends and bridges not checked; UniProt P06850 154-194, looked up) |  |  | 215 ± 9 | 76 ± 1 | 271 ± 8 | 77 ± 4 | 44 | antagonize the edema-producing properties | 63 | 1031 ± 44 | 42 | 676 ± 47 | 59 | 29 | 468 ± 19 | 44 | 2.0 ± 0.05 | 8 out of 8 | 60
